Assays:
[1] = molecular target: 5-hydroxytryptamine receptor 2C (Homo sapiens) (UniProt P28335); settings: Compound concentration 10.0 uM
[2] = molecular target: Serine/threonine-protein kinase PAK 6 (Homo sapiens) (UniProt Q9NQU5); settings: Compound concentration 1000.0 nM
[3] = molecular target: Tyrosine-protein kinase receptor TYRO3 (Homo sapiens) (UniProt Q06418); settings: Compound concentration 1000.0 nM
[4] = molecular target: cAMP-dependent protein kinase catalytic subunit alpha (Homo sapiens) (UniProt P17612); settings: Compound concentration 1000.0 nM
[5] = molecular target: Histamine H1 receptor (Homo sapiens) (UniProt P35367); assay: H1 (h) Eurofins-Cerep Cellular and Nuclear Receptor Functional Assays; settings: Compound concentration 10.0 uM
Histamine H1 receptor (Homo sapiens), sequence (P35367 whole entry): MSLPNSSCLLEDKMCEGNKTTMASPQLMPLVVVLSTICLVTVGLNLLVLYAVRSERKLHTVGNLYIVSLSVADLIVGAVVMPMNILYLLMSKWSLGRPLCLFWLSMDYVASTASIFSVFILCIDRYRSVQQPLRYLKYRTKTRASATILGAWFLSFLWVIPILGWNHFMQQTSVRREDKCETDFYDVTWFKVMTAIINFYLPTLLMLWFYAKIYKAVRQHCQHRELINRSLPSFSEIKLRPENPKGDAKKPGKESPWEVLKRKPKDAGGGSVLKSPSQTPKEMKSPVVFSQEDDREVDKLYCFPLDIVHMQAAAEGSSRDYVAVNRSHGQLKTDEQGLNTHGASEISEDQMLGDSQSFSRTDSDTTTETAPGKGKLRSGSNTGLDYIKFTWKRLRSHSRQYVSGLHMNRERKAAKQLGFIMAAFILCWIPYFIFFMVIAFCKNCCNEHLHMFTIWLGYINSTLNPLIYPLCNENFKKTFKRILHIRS

[6] = molecular target: Tyrosine-protein kinase CSK (Homo sapiens) (UniProt P41240); settings: Compound concentration 1000.0 nM
[7] = molecular target: Eukaryotic translation initiation factor 2-alpha kinase 1 (Homo sapiens) (UniProt Q9BQI3); settings: Compound concentration 1000.0 nM
Eukaryotic translation initiation factor 2-alpha kinase 1 (Homo sapiens), sequence (Q9BQI3 whole entry): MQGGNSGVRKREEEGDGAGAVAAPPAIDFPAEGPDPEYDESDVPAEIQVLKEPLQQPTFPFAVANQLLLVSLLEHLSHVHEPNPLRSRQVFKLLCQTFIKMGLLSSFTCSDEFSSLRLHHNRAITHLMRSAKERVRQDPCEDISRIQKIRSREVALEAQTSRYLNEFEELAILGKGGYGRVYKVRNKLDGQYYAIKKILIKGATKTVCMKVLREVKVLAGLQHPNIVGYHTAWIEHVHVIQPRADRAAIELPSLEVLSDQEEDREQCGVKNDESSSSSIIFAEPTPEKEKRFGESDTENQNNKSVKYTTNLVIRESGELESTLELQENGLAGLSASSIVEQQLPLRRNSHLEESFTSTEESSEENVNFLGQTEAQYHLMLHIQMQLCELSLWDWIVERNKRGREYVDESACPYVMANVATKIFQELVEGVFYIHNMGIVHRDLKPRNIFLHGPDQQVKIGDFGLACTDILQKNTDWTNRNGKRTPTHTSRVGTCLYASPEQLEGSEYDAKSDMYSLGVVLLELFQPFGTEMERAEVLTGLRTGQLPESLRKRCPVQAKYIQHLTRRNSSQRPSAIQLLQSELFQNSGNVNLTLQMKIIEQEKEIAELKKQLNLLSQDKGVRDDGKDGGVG

[8] = test system: Epidermal growth factor receptor (Homo sapiens), P00533 [L858R]; settings: Compound concentration 1000.0 nM
[9] = molecular target: Alpha-2B adrenergic receptor (Homo sapiens) (UniProt P18089); settings: Compound concentration 10.0 uM
Alpha-2B adrenergic receptor (Homo sapiens), sequence (P18089 whole entry): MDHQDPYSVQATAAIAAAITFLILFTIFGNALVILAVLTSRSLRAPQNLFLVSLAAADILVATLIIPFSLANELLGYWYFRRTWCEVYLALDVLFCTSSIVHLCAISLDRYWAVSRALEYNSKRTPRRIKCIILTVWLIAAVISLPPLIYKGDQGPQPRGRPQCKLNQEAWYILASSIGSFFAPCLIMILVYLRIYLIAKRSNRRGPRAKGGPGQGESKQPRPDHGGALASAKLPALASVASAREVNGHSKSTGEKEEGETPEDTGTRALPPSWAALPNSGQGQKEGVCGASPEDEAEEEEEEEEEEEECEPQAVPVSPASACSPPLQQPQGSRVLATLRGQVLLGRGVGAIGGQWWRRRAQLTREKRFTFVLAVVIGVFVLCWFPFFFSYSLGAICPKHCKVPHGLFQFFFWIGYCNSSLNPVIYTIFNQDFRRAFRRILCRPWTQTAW

[10] = test system: Tyrosine-protein kinase ABL1 (Homo sapiens), P00519 [H396P]; settings: Compound concentration 1000.0 nM
[11] = molecular target: Mitogen-activated protein kinase 4 (Homo sapiens) (UniProt P31152); settings: Compound concentration 1000.0 nM
[12] = molecular target: Hormonally up-regulated neu tumor-associated kinase (Homo sapiens) (UniProt P57058); settings: Compound concentration 1000.0 nM
[13] = molecular target: Serine/threonine-protein kinase PLK2 (Homo sapiens) (UniProt Q9NYY3); settings: Compound concentration 1000.0 nM
[14] = molecular target: Histamine H1 receptor (Homo sapiens) (UniProt P35367); settings: Compound concentration 10.0 uM
[15] = molecular target: T1, Muscarinic acetylcholine receptor M2 (Homo sapiens) (UniProt P08172); settings: Compound concentration 10.0 uM
T1 sequence (whole entry): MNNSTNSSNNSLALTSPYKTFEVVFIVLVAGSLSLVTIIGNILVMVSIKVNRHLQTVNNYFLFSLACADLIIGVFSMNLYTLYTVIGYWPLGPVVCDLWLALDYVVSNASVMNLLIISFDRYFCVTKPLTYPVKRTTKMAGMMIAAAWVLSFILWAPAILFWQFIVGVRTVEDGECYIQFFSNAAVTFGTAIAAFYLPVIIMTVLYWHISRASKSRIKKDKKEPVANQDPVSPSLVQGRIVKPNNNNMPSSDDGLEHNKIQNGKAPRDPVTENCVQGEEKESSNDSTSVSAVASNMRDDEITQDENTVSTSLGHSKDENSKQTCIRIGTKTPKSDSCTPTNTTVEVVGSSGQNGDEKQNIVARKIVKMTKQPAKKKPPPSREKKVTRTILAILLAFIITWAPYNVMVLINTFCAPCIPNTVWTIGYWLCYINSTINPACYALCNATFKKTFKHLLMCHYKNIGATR

[16] = test system: Tyrosine-protein kinase ABL1 (Homo sapiens), P00519 [T315I]; settings: Compound concentration 1000.0 nM
[17] = molecular target: Serine/threonine-protein kinase 17B (Homo sapiens) (UniProt O94768); settings: Compound concentration 1000.0 nM
Serine/threonine-protein kinase 17B (Homo sapiens), sequence (O94768 whole entry): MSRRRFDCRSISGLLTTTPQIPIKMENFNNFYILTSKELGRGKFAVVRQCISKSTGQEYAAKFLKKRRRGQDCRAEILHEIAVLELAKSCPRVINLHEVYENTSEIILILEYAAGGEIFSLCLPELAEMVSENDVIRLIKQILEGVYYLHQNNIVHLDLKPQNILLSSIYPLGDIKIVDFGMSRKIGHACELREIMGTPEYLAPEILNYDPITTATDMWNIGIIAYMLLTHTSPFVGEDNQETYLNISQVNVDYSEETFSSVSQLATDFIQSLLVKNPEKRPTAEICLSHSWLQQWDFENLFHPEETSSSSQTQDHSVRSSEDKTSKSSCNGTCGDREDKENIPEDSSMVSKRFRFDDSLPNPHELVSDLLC

[18] = molecular target: T2, D(4) dopamine receptor (Homo sapiens) (UniProt P21917); settings: Compound concentration 10.0 uM
T2 sequence (whole entry): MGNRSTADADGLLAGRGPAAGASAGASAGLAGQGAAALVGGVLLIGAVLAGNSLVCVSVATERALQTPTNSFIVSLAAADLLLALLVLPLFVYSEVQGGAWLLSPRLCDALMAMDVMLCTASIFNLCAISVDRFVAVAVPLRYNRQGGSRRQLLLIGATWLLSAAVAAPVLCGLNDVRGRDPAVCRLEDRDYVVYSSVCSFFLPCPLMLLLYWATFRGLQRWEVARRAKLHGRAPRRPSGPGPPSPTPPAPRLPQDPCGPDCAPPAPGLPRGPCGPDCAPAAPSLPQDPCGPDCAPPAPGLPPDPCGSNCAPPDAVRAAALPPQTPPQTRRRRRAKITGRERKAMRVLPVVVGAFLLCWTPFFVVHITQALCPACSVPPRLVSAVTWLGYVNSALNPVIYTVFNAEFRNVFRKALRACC

[19] = molecular target: Proteinase-activated receptor 4 (Homo sapiens, UniProt Q96RI0); assay: Functional cellular assay (HEK cells) (F2RL3)
Proteinase-activated receptor 4, sequence (Q96RI0 whole entry): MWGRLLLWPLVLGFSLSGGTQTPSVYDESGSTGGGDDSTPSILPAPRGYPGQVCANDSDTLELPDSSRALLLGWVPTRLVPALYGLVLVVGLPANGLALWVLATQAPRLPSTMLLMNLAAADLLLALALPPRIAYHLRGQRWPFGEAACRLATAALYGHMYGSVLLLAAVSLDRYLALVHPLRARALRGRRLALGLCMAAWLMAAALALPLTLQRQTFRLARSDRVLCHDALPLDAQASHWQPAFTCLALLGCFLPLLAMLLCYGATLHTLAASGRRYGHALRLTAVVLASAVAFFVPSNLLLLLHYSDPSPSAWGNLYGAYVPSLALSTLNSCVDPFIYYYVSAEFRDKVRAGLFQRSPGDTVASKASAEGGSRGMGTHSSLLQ

[20] = molecular target: Serine/threonine-protein kinase tousled-like 2 (Homo sapiens) (UniProt Q86UE8); settings: Compound concentration 1000.0 nM
Rattus norvegicus = species on record: Rattus norvegicus; settings: Compound concentration 10.0 uM
[21] = molecular target: 5'-AMP-activated protein kinase catalytic subunit alpha-1 (Homo sapiens) (UniProt Q13131); settings: Compound concentration 1000.0 nM
[22] = molecular target: Casein kinase I isoform alpha-like (Homo sapiens) (UniProt Q8N752); settings: Compound concentration 1000.0 nM
[23] = test system: Epidermal growth factor receptor (Homo sapiens), P00533 [L858R,T790M]; settings: Compound concentration 1000.0 nM
[24] = molecular target: Cyclin-dependent kinase 16 (Homo sapiens) (UniProt Q00536); settings: Compound concentration 1000.0 nM
Cyclin-dependent kinase 16 (Homo sapiens), sequence (Q00536 whole entry): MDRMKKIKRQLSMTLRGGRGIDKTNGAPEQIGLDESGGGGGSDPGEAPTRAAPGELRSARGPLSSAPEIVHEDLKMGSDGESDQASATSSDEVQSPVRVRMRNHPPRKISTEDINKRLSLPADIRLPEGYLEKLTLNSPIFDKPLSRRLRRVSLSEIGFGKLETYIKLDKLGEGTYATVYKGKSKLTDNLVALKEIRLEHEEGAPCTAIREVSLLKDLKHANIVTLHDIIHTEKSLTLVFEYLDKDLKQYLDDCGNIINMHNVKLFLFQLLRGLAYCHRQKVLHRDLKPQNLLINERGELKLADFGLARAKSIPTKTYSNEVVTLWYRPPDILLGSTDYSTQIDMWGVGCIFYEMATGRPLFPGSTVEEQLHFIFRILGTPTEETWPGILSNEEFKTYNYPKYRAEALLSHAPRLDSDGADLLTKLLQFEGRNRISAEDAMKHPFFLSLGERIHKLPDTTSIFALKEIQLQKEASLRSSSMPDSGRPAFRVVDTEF

[25] = molecular target: Mitogen-activated protein kinase 8 (Homo sapiens) (UniProt P45983); settings: Compound concentration 1000.0 nM
[26] = test system: Epidermal growth factor receptor (Homo sapiens), P00533 [UNDEFINED MUTATION]; settings: Compound concentration 1000.0 nM
[27] = molecular target: Serine/threonine-protein kinase NIM1 (Homo sapiens) (UniProt Q8IY84); settings: Compound concentration 1000.0 nM
Serine/threonine-protein kinase NIM1 (Homo sapiens), sequence (Q8IY84 whole entry): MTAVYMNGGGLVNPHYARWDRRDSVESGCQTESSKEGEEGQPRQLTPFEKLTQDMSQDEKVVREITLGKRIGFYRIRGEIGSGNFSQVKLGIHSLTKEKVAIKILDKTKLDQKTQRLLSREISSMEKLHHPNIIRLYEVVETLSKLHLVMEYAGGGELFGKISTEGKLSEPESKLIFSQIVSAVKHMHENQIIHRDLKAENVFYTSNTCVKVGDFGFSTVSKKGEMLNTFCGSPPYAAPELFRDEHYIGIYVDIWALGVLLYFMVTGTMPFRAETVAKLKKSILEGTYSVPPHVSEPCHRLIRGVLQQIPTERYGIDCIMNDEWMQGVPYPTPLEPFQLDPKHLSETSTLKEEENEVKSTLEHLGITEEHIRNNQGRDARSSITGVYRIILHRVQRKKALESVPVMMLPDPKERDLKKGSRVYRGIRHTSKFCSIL

[28] = molecular target: Activated CDC42 kinase 1 (Homo sapiens) (UniProt Q07912); settings: Compound concentration 1000.0 nM
Activated CDC42 kinase 1 (Homo sapiens), sequence (Q07912 whole entry, looked up): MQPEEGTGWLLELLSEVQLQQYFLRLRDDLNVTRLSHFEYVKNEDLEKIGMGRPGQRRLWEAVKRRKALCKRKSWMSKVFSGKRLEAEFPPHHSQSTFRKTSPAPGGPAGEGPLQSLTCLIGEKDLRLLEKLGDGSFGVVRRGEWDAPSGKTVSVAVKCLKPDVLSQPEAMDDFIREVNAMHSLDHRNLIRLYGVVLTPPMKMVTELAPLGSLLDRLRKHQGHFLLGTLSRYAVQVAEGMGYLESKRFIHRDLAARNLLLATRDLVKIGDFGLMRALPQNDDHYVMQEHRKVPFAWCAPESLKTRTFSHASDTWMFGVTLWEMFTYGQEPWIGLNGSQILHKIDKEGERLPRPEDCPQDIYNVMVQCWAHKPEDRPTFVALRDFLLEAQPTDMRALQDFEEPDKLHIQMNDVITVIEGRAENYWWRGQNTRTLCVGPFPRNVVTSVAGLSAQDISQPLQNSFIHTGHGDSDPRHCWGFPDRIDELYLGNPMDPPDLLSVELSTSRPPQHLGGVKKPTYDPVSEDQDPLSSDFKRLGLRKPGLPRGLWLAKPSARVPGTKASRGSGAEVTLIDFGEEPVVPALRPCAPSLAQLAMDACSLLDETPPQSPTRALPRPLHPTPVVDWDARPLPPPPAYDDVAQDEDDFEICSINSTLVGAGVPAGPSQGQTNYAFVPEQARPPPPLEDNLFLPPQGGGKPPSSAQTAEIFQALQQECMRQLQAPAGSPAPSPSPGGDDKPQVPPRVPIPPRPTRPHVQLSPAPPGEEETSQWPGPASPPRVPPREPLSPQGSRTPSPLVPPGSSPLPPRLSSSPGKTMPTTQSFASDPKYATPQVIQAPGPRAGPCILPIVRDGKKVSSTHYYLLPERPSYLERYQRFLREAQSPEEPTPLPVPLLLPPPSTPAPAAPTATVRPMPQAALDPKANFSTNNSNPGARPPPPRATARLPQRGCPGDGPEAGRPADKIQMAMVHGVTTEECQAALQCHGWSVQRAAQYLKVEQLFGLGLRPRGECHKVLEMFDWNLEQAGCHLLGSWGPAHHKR

[29] = molecular target: STE20/SPS1-related proline-alanine-rich protein kinase (Homo sapiens) (UniProt Q9UEW8); settings: Compound concentration 1000.0 nM

5-hydroxytryptamine receptor 2C (Homo sapiens), sequence (P28335 whole entry): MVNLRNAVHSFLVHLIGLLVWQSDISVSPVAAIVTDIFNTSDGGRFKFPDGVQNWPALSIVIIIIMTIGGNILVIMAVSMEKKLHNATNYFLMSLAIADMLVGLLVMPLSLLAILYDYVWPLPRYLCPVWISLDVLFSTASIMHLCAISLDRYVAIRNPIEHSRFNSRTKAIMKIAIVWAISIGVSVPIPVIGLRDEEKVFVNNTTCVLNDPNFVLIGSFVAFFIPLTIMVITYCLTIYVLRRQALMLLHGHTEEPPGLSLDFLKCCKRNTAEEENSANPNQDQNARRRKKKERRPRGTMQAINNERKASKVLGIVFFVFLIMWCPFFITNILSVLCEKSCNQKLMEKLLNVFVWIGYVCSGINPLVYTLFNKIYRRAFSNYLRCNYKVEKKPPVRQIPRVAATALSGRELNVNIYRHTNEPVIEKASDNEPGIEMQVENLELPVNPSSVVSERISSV

Structure (SMILES): O=C(N1CCS(=O)(=O)CC1)N1C[C@H](c2ccc(OC(F)(F)F)cc2)C[C@H](c2nc(C3CC3)no2)C1 [BAY-386]
- inhibition [1]: -4.94%
- residual activity [2]: 100%
- residual activity [3]: 98%
- residual activity [4]: 100%
- % Inhibition of Control Agonist Response (Mean n=2) [5]: 6.9%
- % of Control Agonist Response (Mean n=2) [5]: 4.1%
- residual activity [6]: 100%
- residual activity [7]: 90%
- residual activity [8]: 100%
- inhibition [9]: 2.41%
- residual activity [10]: 100%
- residual activity [11]: 100%
- residual activity [12]: 100%
- residual activity [13]: 100%
- inhibition [14]: -5.32%
- inhibition [15]: -9.14%
- residual activity [16]: 92%
- residual activity [17]: 100%
- inhibition [18]: 5.24%
- IC50 [19]: > 10 µM (not active)
- residual activity [20]: 100%
- inhibition (Rattus norvegicus): 14.9%
- residual activity [21]: 100%
- residual activity [22]: 100%
- residual activity [23]: 59%
- residual activity [24]: 100%
- residual activity [25]: 82%
- residual activity [26]: 92%
- residual activity [27]: 93%
- residual activity [28]: 97%
- residual activity [29]: 100%

Structure (SMILES): Cc1noc([C@H]2C[C@@H](c3ccc(C(F)(F)F)cc3)CN(C(=O)N3CCS(=O)(=O)C3)C2)n1 [BAY-448]
- inhibition [1]: 37.1%
- residual activity [2]: 100%
- residual activity [3]: 100%
- residual activity [4]: 100%
- % Inhibition of Control Agonist Response (Mean n=2) [5]: -14.6%
- % of Control Agonist Response (Mean n=2) [5]: 0.3%
- residual activity [6]: 100%
- residual activity [7]: 100%
- residual activity [8]: 100%
- inhibition [9]: -2.77%
- residual activity [10]: 100%
- residual activity [11]: 100%
- residual activity [12]: 100%
- residual activity [13]: 100%
- inhibition [14]: 11.5%
- inhibition [15]: 39.5%
- residual activity [16]: 100%
- residual activity [17]: 100%
- inhibition [18]: 6.3%
- IC50 [19]: > 5 µM (not active)
- residual activity [20]: 100%
- inhibition (Rattus norvegicus): 7.2%
- residual activity [21]: 100%
- residual activity [22]: 100%
- residual activity [23]: 96%
- residual activity [24]: 100%
- residual activity [25]: 77%
- residual activity [26]: 67%
- residual activity [27]: 100%
- residual activity [28]: 100%
- residual activity [29]: 95%

Reference: ChEMBL document CHEMBL4507269, “Data for DCP probe BAY-386” (2021)
